Source: the NIST ThermoML archive (doi:10.1021/je301147k)

Experiment: mn = molality of the nth substance listed, in mol/kg
Conditions: for electrical conductivity: 100 kPa, Liquid, CyberScan CON1500 Bench Conductivity Meter; for surface tension liquid-gas: 298.2 K, Ring tensiometer

CCCCCCCCCCCCn1cc[n+](C)c1.[Br-] [1-dodecyl-3-methylimidazolium bromide] + O
electrical conductivity [S/m]
Conditions | 288.15 K | 293.15 K | 298.15 K | 303.15 K
m1 = 0.001 | 0.00769 | 0.00898 | 0.01 | 0.0112
m1 = 0.002 | 0.0157 | 0.0181 | 0.0198 | 0.0223
m1 = 0.003 | 0.0224 | 0.0261 | 0.029 | 0.032
m1 = 0.004 | 0.0302 | 0.0345 | 0.0386 | 0.0427
m1 = 0.005 | 0.0379 | 0.043 | 0.048 | 0.0519
m1 = 0.006 | 0.0445 | 0.0504 | 0.0563 | 0.0626
m1 = 0.007 | 0.052 | 0.0589 | 0.0655 | 0.0728
m1 = 0.008 | 0.0589 | 0.0664 | 0.0741 | 0.0824
m1 = 0.009 | 0.0657 | 0.074 | 0.0823 | 0.0916
m1 = 0.01 | 0.0717 | 0.0814 | 0.0909 | 0.101
m1 = 0.011 | 0.0758 | 0.0853 | 0.0963 | 0.107
m1 = 0.012 | 0.0776 | 0.0876 | 0.0986 | 0.111
m1 = 0.013 | 0.0799 | 0.0907 | 0.102 | 0.116
m1 = 0.014 | 0.0814 | 0.0922 | 0.104 | 0.118
m1 = 0.015 | 0.0837 | 0.0947 | 0.107 | 0.122
m1 = 0.016 | 0.0854 | 0.0966 | 0.11 | 0.124
m1 = 0.017 | 0.0874 | 0.0986 | 0.112 | 0.127
m1 = 0.018 | 0.0882 | 0.0998 | 0.113 | 0.129
m1 = 0.019 | 0.0893 | 0.101 | 0.115 | 0.131
m1 = 0.02 | 0.0913 | 0.104 | 0.118 | 0.134
m1 = 0.021 | 0.0923 | 0.106 | 0.12 | 0.136
m1 = 0.022 | 0.0935 | 0.107 | 0.122 | 0.139
m1 = 0.023 | 0.0948 | 0.109 | 0.125 | 0.141
m1 = 0.024 | 0.0964 | 0.111 | 0.127 | 0.144
m1 = 0.025 | 0.0985 | 0.112 | 0.129 | 0.146

Conditions | surface tension liquid-gas [mN/m]
m1 = 0.0005 | 68.38
m1 = 0.001 | 62.44
m1 = 0.002 | 58.12
m1 = 0.004 | 51.39
m1 = 0.006 | 43.7
m1 = 0.008 | 40.35
m1 = 0.01 | 36.83
m1 = 0.012 | 36.51
m1 = 0.014 | 36.56
m1 = 0.016 | 36.65
m1 = 0.018 | 36.6
m1 = 0.02 | 36.57
m1 = 0.025 | 36.54
m1 = 0.03 | 36.48
m1 = 0.04 | 36.67
m1 = 0.05 | 36.67

CCCCCCCCCCCC[n+]1ccn(C)c1.[Cl-] [1-dodecyl-3-methylimidazolium chloride] + O
electrical conductivity [S/m]
Conditions | 288.15 K | 293.15 K | 298.15 K | 303.15 K
m1 = 0.001 | 0.00787 | 0.00877 | 0.00992 | 0.0109
m1 = 0.002 | 0.0149 | 0.0166 | 0.0187 | 0.0207
m1 = 0.003 | 0.0219 | 0.0245 | 0.0273 | 0.0304
m1 = 0.004 | 0.0289 | 0.0324 | 0.0367 | 0.0408
m1 = 0.005 | 0.0355 | 0.0401 | 0.0448 | 0.0503
m1 = 0.006 | 0.0433 | 0.0481 | 0.054 | 0.0598
m1 = 0.007 | 0.0491 | 0.0548 | 0.0617 | 0.0687
m1 = 0.008 | 0.0562 | 0.0637 | 0.071 | 0.0787
m1 = 0.009 | 0.0633 | 0.0711 | 0.0795 | 0.0885
m1 = 0.01 | 0.0688 | 0.0778 | 0.0871 | 0.0961
m1 = 0.011 | 0.0764 | 0.0861 | 0.0964 | 0.107
m1 = 0.012 | 0.0832 | 0.0934 | 0.105 | 0.117
m1 = 0.013 | 0.0886 | 0.0991 | 0.112 | 0.124
m1 = 0.014 | 0.095 | 0.106 | 0.118 | 0.132
m1 = 0.015 | 0.1 | 0.112 | 0.126 | 0.14
m1 = 0.016 | 0.105 | 0.117 | 0.131 | 0.145
m1 = 0.017 | 0.107 | 0.12 | 0.136 | 0.15
m1 = 0.018 | 0.111 | 0.125 | 0.14 | 0.155
m1 = 0.019 | 0.115 | 0.129 | 0.144 | 0.16
m1 = 0.02 | 0.117 | 0.132 | 0.146 | 0.165
m1 = 0.021 | 0.12 | 0.135 | 0.15 | 0.169
m1 = 0.022 | 0.122 | 0.137 | 0.154 | 0.173
m1 = 0.023 | 0.125 | 0.141 | 0.158 | 0.178
m1 = 0.024 | 0.128 | 0.144 | 0.162 | 0.181
m1 = 0.025 | 0.131 | 0.147 | 0.166 | 0.185

Conditions | surface tension liquid-gas [mN/m]
m1 = 0.001 | 69.37
m1 = 0.002 | 63.46
m1 = 0.004 | 58.36
m1 = 0.006 | 53.85
m1 = 0.01 | 47.71
m1 = 0.014 | 43.05
m1 = 0.018 | 38.43
m1 = 0.02 | 38.26
m1 = 0.025 | 38.38
m1 = 0.03 | 38.61
m1 = 0.04 | 38.35
m1 = 0.05 | 38.55

CCCCCCCCCCCCn1cc[n+](C)c1.[I-] [1-dodecyl-3-methylimidazolium iodide] + O
electrical conductivity [S/m]
Conditions | 288.15 K | 293.15 K | 298.15 K | 303.15 K
m1 = 0.0005 | 0.00423 | 0.00497 | 0.00565 | 0.00618
m1 = 0.001 | 0.00828 | 0.00961 | 0.0108 | 0.0118
m1 = 0.002 | 0.0151 | 0.017 | 0.0191 | 0.0211
m1 = 0.003 | 0.0227 | 0.0255 | 0.0287 | 0.0316
m1 = 0.004 | 0.0292 | 0.0332 | 0.0373 | 0.0413
m1 = 0.005 | 0.0334 | 0.0388 | 0.0452 | 0.0506
m1 = 0.006 | 0.036 | 0.0418 | 0.0483 | 0.0552
m1 = 0.007 | 0.0368 | 0.0432 | 0.05 | 0.0579
m1 = 0.008 | 0.0378 | 0.0444 | 0.0516 | 0.0595
m1 = 0.009 | 0.0393 | 0.0459 | 0.0532 | 0.0614
m1 = 0.01 | 0.04 | 0.047 | 0.0543 | 0.0634
m1 = 0.011 | 0.0412 | 0.0485 | 0.0558 | 0.0653
m1 = 0.012 | 0.042 | 0.0502 | 0.0576 | 0.0672
m1 = 0.013 | 0.0425 | 0.0508 | 0.0589 | 0.0687
m1 = 0.014 | 0.0441 | 0.0519 | 0.06 | 0.0699
m1 = 0.015 | 0.0448 | 0.0535 | 0.0616 | 0.0712
m1 = 0.016 | 0.0458 | 0.0542 | 0.0631 | 0.0728
m1 = 0.017 | 0.0471 | 0.0556 | 0.0645 | 0.0739
m1 = 0.018 | 0.0483 | 0.0568 | 0.066 | 0.0758
m1 = 0.019 | 0.0489 | 0.0574 | 0.0667 | 0.0774
m1 = 0.02 | 0.0496 | 0.0582 | 0.0677 | 0.0784

Conditions | surface tension liquid-gas [mN/m]
m1 = 0.0001 | 69.81
m1 = 0.0005 | 65.15
m1 = 0.001 | 56.7
m1 = 0.002 | 46.92
m1 = 0.003 | 38.08
m1 = 0.004 | 33.49
m1 = 0.005 | 31.45
m1 = 0.006 | 31.48
m1 = 0.007 | 31.39
m1 = 0.009 | 31.5
m1 = 0.012 | 31.6
m1 = 0.016 | 31.57
m1 = 0.02 | 31.66
